The target of experiment [1] is T1, human amylin receptor (calcitonin receptor co-expressed with receptor activity modifying protein, RAMP3) (hAMYR3) (Homo sapiens, UniProt O60896+P30988).
T1 construct: expressed in transfected cells
T1 sequence (P30988 25-474): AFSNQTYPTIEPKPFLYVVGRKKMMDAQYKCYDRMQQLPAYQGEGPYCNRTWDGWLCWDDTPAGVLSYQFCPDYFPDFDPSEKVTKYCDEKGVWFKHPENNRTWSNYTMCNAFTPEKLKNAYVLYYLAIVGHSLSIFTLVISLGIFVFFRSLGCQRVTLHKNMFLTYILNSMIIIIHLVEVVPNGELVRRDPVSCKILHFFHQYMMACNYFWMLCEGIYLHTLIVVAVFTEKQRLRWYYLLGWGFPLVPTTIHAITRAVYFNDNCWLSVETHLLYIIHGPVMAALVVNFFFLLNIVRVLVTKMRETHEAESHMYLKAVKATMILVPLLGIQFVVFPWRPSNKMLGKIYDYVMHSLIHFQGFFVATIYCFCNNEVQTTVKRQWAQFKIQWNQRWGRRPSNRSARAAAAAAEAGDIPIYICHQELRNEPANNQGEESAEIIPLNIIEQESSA
T1 sequence (O60896 24-148 partner): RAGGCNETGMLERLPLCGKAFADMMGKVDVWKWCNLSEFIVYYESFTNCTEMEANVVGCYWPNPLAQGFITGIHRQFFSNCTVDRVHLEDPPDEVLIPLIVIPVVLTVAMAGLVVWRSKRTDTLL
Nature of the experiment: cAMP production in 1321N1 cells with stable recombinant expression of human amylin receptor (hAMYR3). In kind it is cell-based. To be noted: for Ratio (selectivity hAMYR vs hCTR, ratio of EC50 values at the two receptors): EC50 hCTR / EC50 hAMYR3; for EC50: cAMP, 1321N1 cells, assay buffer with 0.1% BSA, read-out: EC50 (pM) hAMYR3. The method, boiled down:
(§1)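 Receptor-expressing cells (human receptors in 1321N1, rat receptors in HEK) incubated 30 min at room temperature with peptide in HBSS/HEPES pH 7.4, 0.1% BSA, 0.5 mM IBMX. cAMP read by HTRF; EC50 from 4-parameter fit as % of maximal amylin or calcitonin response.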

The target of experiment [2] is T2, human calcitonin receptor (hCTR) (Homo sapiens, UniProt P30988).
T2 construct: expressed in transfected cells
T2 sequence (P30988 25-474): T1 sequence (P30988 25-474)
Nature of the experiment: cAMP production in 1321N1 cells with stable recombinant expression of human calcitonin receptor (hCTR). Type of experiment: cell-based. To be noted: cAMP, 1321N1 cells, assay buffer with 0.1% BSA; read-out: EC50 (pM) hCTR. The procedure, abridged: as §1

Broadly, the EC50 is the concentration at which the effect is half-maximal.

Each structure is given as a SMILES string. Numbered stars: 1 amine (or outer) side, 2 acyl side, 3 side chain; on linkers, the order of the positions; unused ones are H or OH. Bridge positions count the residues as written; N and C are the ends. Square brackets hold non-standard residues; d marks the D form. Side chains are listed from the residue outwards. Peptide text beside a SMILES is read from it. * marks the point of attachment. C18 diacid = O=C(O)CCCCCCCCCCCCCCCCC(=O)*; γGlu = O=C(O)[C@H](CCC(=O)[*:2])N[*:1]; Dab = NCC[C@H](N)C(=O)O; Aib = CC(C)(N)C(=O)O

With `CC[C@H](C)[C@H](NC(=O)[C@@H]1CCCN1C(=O)CNC(=O)[C@H](Cc1ccccc1)NC(=O)[C@H](CC(N)=O)NC(=O)[C@H](CC(N)=O)NC(=O)[C@H](CO)NC(=O)[C@H](CO)NC(=O)[C@H](Cc1c[nH]cn1)NC(=O)C(C)(C)NC(=O)[C@H](CC(C)C)NC(=O)[C@H](Cc1ccccc1)NC(=O)[C@H](CC(N)=O)NC(=O)[C@H](C)NC(=O)[C@H](CC(C)C)NC(=O)[C@H](CCCNC(=N)N)NC(=O)[C@H](CCC(N)=O)NC(=O)[C@@H](NC(=O)[C@H](C)NC(=O)[C@@H]1CSSC[C@H](NC(=O)[C@H](CCCCN)NC(=O)[C@@H](N)CCCCNC(=O)CC[C@H](NC(=O)CCCCCCCCCCCCCCCCC(=O)O)C(=O)O)C(=O)N[C@@H](CC(N)=O)C(=O)N[C@@H]([C@@H](C)O)C(=O)N[C@@H](C)C(=O)N[C@@H]([C@@H](C)O)C(=O)N1)[C@@H](C)O)C(=O)N[C@@H](CC(C)C)C(=O)N1CCC[C@H]1C(=O)N1CCC[C@H]1C(=O)N[C@H](C(=O)N[C@@H](CC(N)=O)C(=O)N[C@H](C(=O)NCC(=O)N[C@@H](CO)C(=O)N[C@@H](CCC(=O)O)C(=O)N[C@H](C(=O)N[C@@H](Cc1ccc(O)cc1)C(N)=O)[C@@H](C)O)C(C)C)[C@@H](C)O` [Peptide 142] (H-K([γGlu-C18 diacid])KCNTATCATQRLANFL[Aib]HSSNNFGPILPPTNVGSETY-NH2; disulfide 3-8; N-terminus assumed), in experiment [1], the “Ratio (selectivity hAMYR vs hCTR, ratio of EC50 values at the two receptors)” value was 3.1 and the EC50 is 730 pM. Besides, the EC50 in experiment [2] came to 2270 pM.
In the same order, the values of `CC(C)C[C@H](NC(=O)[C@H](CCCNC(=N)N)NC(=O)[C@H](CCC(N)=O)NC(=O)[C@@H](NC(=O)[C@H](C)NC(=O)[C@@H]1CSSC[C@H](NC(=O)[C@H](CCCCN)NC(=O)[C@@H](N)CCCCNC(=O)CC[C@H](NC(=O)CCCCCCCCCCCCCCCCC(=O)O)C(=O)O)C(=O)N[C@@H](CC(N)=O)C(=O)N[C@@H]([C@@H](C)O)C(=O)N[C@@H](C)C(=O)N[C@@H]([C@@H](C)O)C(=O)N1)[C@@H](C)O)C(=O)N[C@@H](C)C(=O)N[C@@H](CC(N)=O)C(=O)N[C@@H](Cc1ccccc1)C(=O)N[C@@H](CC(C)C)C(=O)N[C@H](C(=O)N[C@@H](Cc1c[nH]cn1)C(=O)N[C@@H](CO)C(=O)N[C@@H](CO)C(=O)NC(C)(C)C(=O)N[C@@H](CC(N)=O)C(=O)N[C@@H](Cc1ccccc1)C(=O)NCC(=O)N1CCC[C@H]1C(=O)NC(C)(C)C(=O)N[C@@H](CC(C)C)C(=O)N1CCC[C@H]1C(=O)N1CCC[C@H]1C(=O)N[C@H](C(=O)N[C@@H](CC(N)=O)C(=O)N[C@H](C(=O)NCC(=O)N[C@@H](CO)C(=O)N[C@@H](CC(N)=O)C(=O)N[C@H](C(=O)N[C@@H](Cc1ccc(O)cc1)C(N)=O)[C@@H](C)O)C(C)C)[C@@H](C)O)C(C)C` [Peptide 78, K(γE-C18diacid)K[CNTATC]ATQRLANFLVHSS(Aib)NFGP(Aib)LPPTNVGSNTY-amide] (H-K([γGlu-C18 diacid])KCNTATCATQRLANFLVHSS[Aib]NFGP[Aib]LPPTNVGSNTY-NH2; disulfide 3-8; N-terminus assumed) are 11, 288 pM and 3150 pM.
As to `CC[C@H](C)[C@H](NC(=O)[C@@H]1CCCN1C(=O)CNC(=O)[C@H](Cc1ccccc1)NC(=O)[C@H](CC(N)=O)NC(=O)[C@H](CC(N)=O)NC(=O)[C@H](CO)NC(=O)[C@H](CO)NC(=O)[C@H](Cc1c[nH]cn1)NC(=O)C(C)(C)NC(=O)[C@H](CC(C)C)NC(=O)[C@H](Cc1ccccc1)NC(=O)[C@H](CC(N)=O)NC(=O)[C@H](C)NC(=O)[C@H](CC(C)C)NC(=O)[C@H](CCCNC(=N)N)NC(=O)[C@H](CCC(N)=O)NC(=O)[C@@H](NC(=O)[C@H](C)NC(=O)[C@@H]1CSSC[C@H](NC(=O)[C@H](CCCCN)NC(=O)[C@@H](N)CCCCNC(=O)CC[C@H](NC(=O)CCCCCCCCCCCCCCCCC(=O)O)C(=O)O)C(=O)N[C@@H](CC(N)=O)C(=O)N[C@@H]([C@@H](C)O)C(=O)N[C@@H](C)C(=O)N[C@@H]([C@@H](C)O)C(=O)N1)[C@@H](C)O)C(=O)N[C@@H](CC(C)C)C(=O)N1CCC[C@H]1C(=O)N1CCC[C@H]1C(=O)N[C@H](C(=O)NC(C)(C)C(=O)N[C@H](C(=O)NCC(=O)N[C@@H](CO)C(=O)N[C@@H](CC(N)=O)C(=O)N[C@H](C(=O)N[C@@H](Cc1ccc(O)cc1)C(N)=O)[C@@H](C)O)C(C)C)[C@@H](C)O` [Peptide 98, K(γE-C18diacid)K[CNTATC]ATQRLANFL(Aib)HSSNNFGPILPPT(Aib)VGSNTY-amide] (H-K([γGlu-C18 diacid])KCNTATCATQRLANFL[Aib]HSSNNFGPILPPT[Aib]VGSNTY-NH2; disulfide 3-8; N-terminus assumed), in experiment [1], the “Ratio (selectivity hAMYR vs hCTR, ratio of EC50 values at the two receptors)” value came to 1. For the same compound, the EC50 turned out to be 942 pM in experiment [1] and 972 pM in experiment [2].
Consider `CC[C@H](C)[C@H](NC(=O)[C@@H]1CCCN1C(=O)CNC(=O)[C@H](Cc1ccccc1)NC(=O)[C@H](CC(N)=O)NC(=O)[C@H](CC(N)=O)NC(=O)[C@H](CO)NC(=O)[C@H](CO)NC(=O)[C@H](Cc1c[nH]cn1)NC(=O)C(C)(C)NC(=O)[C@H](CC(C)C)NC(=O)[C@H](Cc1ccccc1)NC(=O)[C@H](CC(N)=O)NC(=O)[C@H](C)NC(=O)[C@H](CC(C)C)NC(=O)[C@H](CCCNC(=N)N)NC(=O)[C@H](CCC(N)=O)NC(=O)[C@@H](NC(=O)[C@H](C)NC(=O)[C@@H]1CSSC[C@H](NC(=O)[C@H](CCCCN)NC(=O)[C@@H](N)CCCCNC(=O)CC[C@H](NC(=O)CCCCCCCCCCCCCCCCC(=O)O)C(=O)O)C(=O)N[C@@H](CC(N)=O)C(=O)N[C@@H]([C@@H](C)O)C(=O)N[C@@H](C)C(=O)N[C@@H]([C@@H](C)O)C(=O)N1)[C@@H](C)O)C(=O)N[C@@H](CC(C)C)C(=O)N1CCC[C@H]1C(=O)N1CCC[C@H]1C(=O)N[C@H](C(=O)N[C@@H](CC(N)=O)C(=O)N[C@H](C(=O)NCC(=O)N[C@@H](CO)C(=O)N[C@@H](CCCNC(=N)N)C(=O)N[C@H](C(=O)N[C@@H](Cc1ccc(O)cc1)C(N)=O)[C@@H](C)O)C(C)C)[C@@H](C)O` [Peptide 141] (H-K([γGlu-C18 diacid])KCNTATCATQRLANFL[Aib]HSSNNFGPILPPTNVGSRTY-NH2; disulfide 3-8; N-terminus assumed), for which the “Ratio (selectivity hAMYR vs hCTR, ratio of EC50 values at the two receptors)” value in experiment [1] stood at 9.5. In addition, the EC50 in experiment [1] came out at 414 pM; in experiment [2], 3950 pM.
In the same order, the values of `CC[C@H](C)[C@H](NC(=O)[C@@H]1CCCN1C(=O)CNC(=O)[C@H](Cc1ccccc1)NC(=O)[C@H](CC(N)=O)NC(=O)[C@H](CCN)NC(=O)[C@H](CO)NC(=O)[C@H](CO)NC(=O)[C@H](Cc1c[nH]cn1)NC(=O)[C@@H](NC(=O)[C@H](CC(C)C)NC(=O)[C@H](Cc1ccccc1)NC(=O)[C@H](CC(N)=O)NC(=O)[C@H](C)NC(=O)[C@H](CC(C)C)NC(=O)[C@H](CCCNC(=N)N)NC(=O)[C@H](CCC(N)=O)NC(=O)[C@@H](NC(=O)[C@H](C)NC(=O)[C@@H]1CSSC[C@H](NC(=O)[C@H](CCCCN)NC(=O)[C@@H](N)CCCCNC(=O)CC[C@H](NC(=O)CCCCCCCCCCCCCCCCC(=O)O)C(=O)O)C(=O)N[C@@H](CC(N)=O)C(=O)N[C@@H]([C@@H](C)O)C(=O)N[C@@H](C)C(=O)N[C@@H]([C@@H](C)O)C(=O)N1)[C@@H](C)O)C(C)C)C(=O)N[C@@H](CC(C)C)C(=O)N1CCC[C@H]1C(=O)N1CCC[C@H]1C(=O)N[C@H](C(=O)N[C@@H](CC(N)=O)C(=O)N[C@H](C(=O)NCC(=O)N[C@@H](CO)C(=O)N[C@@H](CC(N)=O)C(=O)N[C@H](C(=O)N[C@@H](Cc1ccc(O)cc1)C(N)=O)[C@@H](C)O)C(C)C)[C@@H](C)O` [Peptide 29, K(γE-C18diacid)K[CNTATC]ATQRLANFLVHSS(Dab)NFGPILPPTNVGSNTY-amide] (H-K([γGlu-C18 diacid])KCNTATCATQRLANFLVHSS[Dab]NFGPILPPTNVGSNTY-NH2; disulfide 3-8; N-terminus assumed) are 34, 243 pM and 8210 pM.

The values above are taken from patent US20240067693A1, “POLYPEPTIDES AND USES THEREOF” (MEDIMMUNE LIMITED, priority 2020, published 2024).
